Assay results published in patent US8048825B2, “Haloalkylsulfonanilide derivatives or salt thereof, herbicide comprising the derivatives as active ingredient, and use of the herbicide” (Nihon Nohyaku Co., Ltd., priority 2006, dated 2011).

Key:
Format in all cases: in vivo
Lindernia procumbens [1] = experiment: Herbicidal efficacy on paddy field weeds of pre-emergence stage (Pre), Test Example 1; settings: 1000 g/ha as active ingredient, examined after 21 days
Procedure, shortened: (§1)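 Clay-loam pots sown with Scirpus juncoides, covered with soil containing Lindernia procumbens seed, flooded to 5 cm. Next day formulated compound applied dropwise to water at 1000 g/ha a.i. Greenhouse-grown; growth inhibition versus untreated scored 0–5 after 21 days.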

Scirpus juncoides [2] = experiment: as above; settings: 1000 g/ha as active ingredient, examined after 21 days
Procedure, shortened: as §1

Echinochloa crus-galli = experiment: Herbicidal effect on paddy field weeds of post-emergence stage (Post), Test Example 2; settings: one-leaf stage, 1000 g/ha as active ingredient, examined after 21 days
Procedure, shortened: (§2)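 Scirpus juncoides and Echinochloa crus-galli sown in clay loam, with Lindernia procumbens seed in the soil cover, under 5 cm flooding in greenhouse. At one-leaf stage, 1000 g/ha active ingredient applied to pot water. Efficacy scored visually 0–5 against untreated plants at 21 days after treatment.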

Lindernia procumbens [3] = experiment: as above; settings: one-leaf stage, 1000 g/ha as active ingredient, examined after 21 days
Procedure, shortened: as §2

Scirpus juncoides [4] = experiment: as above; settings: one-leaf stage, 1000 g/ha as active ingredient, examined after 21 days
Procedure, shortened: as §2

CCCCOC(=O)N(c1ccccc1CN1CCCOC1=S)S(=O)(=O)C(F)(F)F [Compound 1-16]
Lindernia procumbens pre (herbicidal effect) (Lindernia procumbens [1]): 4 (90%-99% herbicidal effect, phytotoxicity) | Scirpus juncoides pre (herbicidal effect) (Scirpus juncoides [2]): 4 (90%-99% herbicidal effect, phytotoxicity) | Echinochloa crus-galli post (herbicidal effect) (Echinochloa crus-galli): 4 (90%-99% herbicidal effect, phytotoxicity) | Lindernia procumbens post (herbicidal effect) (Lindernia procumbens [3]): 4 (90%-99% herbicidal effect, phytotoxicity) | Scirpus juncoides post (herbicidal effect) (Scirpus juncoides [4]): 4 (90%-99% herbicidal effect, phytotoxicity)

CC(C)COC(=O)N(c1ccccc1CN1CCCOC1=S)S(=O)(=O)C(F)(F)F [Compound 1-17]
Lindernia procumbens pre (herbicidal effect) (Lindernia procumbens [1]): 4 (90%-99% herbicidal effect, phytotoxicity) | Scirpus juncoides pre (herbicidal effect) (Scirpus juncoides [2]): 4 (90%-99% herbicidal effect, phytotoxicity) | Echinochloa crus-galli post (herbicidal effect) (Echinochloa crus-galli): 4 (90%-99% herbicidal effect, phytotoxicity) | Lindernia procumbens post (herbicidal effect) (Lindernia procumbens [3]): 4 (90%-99% herbicidal effect, phytotoxicity) | Scirpus juncoides post (herbicidal effect) (Scirpus juncoides [4]): 4 (90%-99% herbicidal effect, phytotoxicity)

CC1(C)COC(=O)N(Cc2ccccc2NS(=O)(=O)C(F)(F)F)C1 [Compound 1-23]
Lindernia procumbens pre (herbicidal effect) (Lindernia procumbens [1]): 4 (90%-99% herbicidal effect, phytotoxicity) | Scirpus juncoides pre (herbicidal effect) (Scirpus juncoides [2]): 4 (90%-99% herbicidal effect, phytotoxicity) | Echinochloa crus-galli post (herbicidal effect) (Echinochloa crus-galli): 4 (90%-99% herbicidal effect, phytotoxicity) | Lindernia procumbens post (herbicidal effect) (Lindernia procumbens [3]): 4 (90%-99% herbicidal effect, phytotoxicity) | Scirpus juncoides post (herbicidal effect) (Scirpus juncoides [4]): 4 (90%-99% herbicidal effect, phytotoxicity)

CCOC(=O)N(c1ccccc1CN1CC(C)(C)COC1=O)S(=O)(=O)C(F)(F)F [Compound 1-25]
Lindernia procumbens pre (herbicidal effect) (Lindernia procumbens [1]): 4 (90%-99% herbicidal effect, phytotoxicity) | Scirpus juncoides pre (herbicidal effect) (Scirpus juncoides [2]): 4 (90%-99% herbicidal effect, phytotoxicity) | Echinochloa crus-galli post (herbicidal effect) (Echinochloa crus-galli): 4 (90%-99% herbicidal effect, phytotoxicity) | Lindernia procumbens post (herbicidal effect) (Lindernia procumbens [3]): 4 (90%-99% herbicidal effect, phytotoxicity) | Scirpus juncoides post (herbicidal effect) (Scirpus juncoides [4]): 4 (90%-99% herbicidal effect, phytotoxicity)

CCCOC(=O)N(c1ccccc1CN1CC(C)(C)COC1=O)S(=O)(=O)C(F)(F)F [Compound 1-26]
Lindernia procumbens pre (herbicidal effect) (Lindernia procumbens [1]): 4 (90%-99% herbicidal effect, phytotoxicity) | Scirpus juncoides pre (herbicidal effect) (Scirpus juncoides [2]): 4 (90%-99% herbicidal effect, phytotoxicity) | Echinochloa crus-galli post (herbicidal effect) (Echinochloa crus-galli): 4 (90%-99% herbicidal effect, phytotoxicity) | Lindernia procumbens post (herbicidal effect) (Lindernia procumbens [3]): 4 (90%-99% herbicidal effect, phytotoxicity) | Scirpus juncoides post (herbicidal effect) (Scirpus juncoides [4]): 4 (90%-99% herbicidal effect, phytotoxicity)

CCCCOC(=O)N(c1ccccc1CN1CC(C)(C)COC1=O)S(=O)(=O)C(F)(F)F [Compound 1-27]
Lindernia procumbens pre (herbicidal effect) (Lindernia procumbens [1]): 4 (90%-99% herbicidal effect, phytotoxicity) | Scirpus juncoides pre (herbicidal effect) (Scirpus juncoides [2]): 4 (90%-99% herbicidal effect, phytotoxicity) | Echinochloa crus-galli post (herbicidal effect) (Echinochloa crus-galli): 4 (90%-99% herbicidal effect, phytotoxicity) | Lindernia procumbens post (herbicidal effect) (Lindernia procumbens [3]): 4 (90%-99% herbicidal effect, phytotoxicity) | Scirpus juncoides post (herbicidal effect) (Scirpus juncoides [4]): 4 (90%-99% herbicidal effect, phytotoxicity)

CC(C)COC(=O)N(c1ccccc1CN1CC(C)(C)COC1=O)S(=O)(=O)C(F)(F)F [Compound 1-28]
Lindernia procumbens pre (herbicidal effect) (Lindernia procumbens [1]): 4 (90%-99% herbicidal effect, phytotoxicity) | Scirpus juncoides pre (herbicidal effect) (Scirpus juncoides [2]): 4 (90%-99% herbicidal effect, phytotoxicity) | Echinochloa crus-galli post (herbicidal effect) (Echinochloa crus-galli): 4 (90%-99% herbicidal effect, phytotoxicity) | Lindernia procumbens post (herbicidal effect) (Lindernia procumbens [3]): 4 (90%-99% herbicidal effect, phytotoxicity) | Scirpus juncoides post (herbicidal effect) (Scirpus juncoides [4]): 4 (90%-99% herbicidal effect, phytotoxicity)

CCOC(=O)N(c1ccccc1CN1CC(C)(C)COC1=S)S(=O)(=O)C(F)(F)F [Compound 1-36]
Lindernia procumbens pre (herbicidal effect) (Lindernia procumbens [1]): 4 (90%-99% herbicidal effect, phytotoxicity) | Scirpus juncoides pre (herbicidal effect) (Scirpus juncoides [2]): 4 (90%-99% herbicidal effect, phytotoxicity) | Echinochloa crus-galli post (herbicidal effect) (Echinochloa crus-galli): 4 (90%-99% herbicidal effect, phytotoxicity) | Lindernia procumbens post (herbicidal effect) (Lindernia procumbens [3]): 4 (90%-99% herbicidal effect, phytotoxicity) | Scirpus juncoides post (herbicidal effect) (Scirpus juncoides [4]): 4 (90%-99% herbicidal effect, phytotoxicity)

CC(C)COC(=O)N(c1ccccc1CN1CC(C)(C)COC1=S)S(=O)(=O)C(F)(F)F [Compound 1-39]
Lindernia procumbens pre (herbicidal effect) (Lindernia procumbens [1]): 4 (90%-99% herbicidal effect, phytotoxicity) | Scirpus juncoides pre (herbicidal effect) (Scirpus juncoides [2]): 4 (90%-99% herbicidal effect, phytotoxicity) | Echinochloa crus-galli post (herbicidal effect) (Echinochloa crus-galli): 4 (90%-99% herbicidal effect, phytotoxicity) | Lindernia procumbens post (herbicidal effect) (Lindernia procumbens [3]): 4 (90%-99% herbicidal effect, phytotoxicity) | Scirpus juncoides post (herbicidal effect) (Scirpus juncoides [4]): 4 (90%-99% herbicidal effect, phytotoxicity)

CC1(C)CCN(Cc2ccccc2NS(=O)(=O)C(F)(F)F)C(=O)O1 [Compound 1-45]
Lindernia procumbens pre (herbicidal effect) (Lindernia procumbens [1]): 4 (90%-99% herbicidal effect, phytotoxicity) | Scirpus juncoides pre (herbicidal effect) (Scirpus juncoides [2]): 4 (90%-99% herbicidal effect, phytotoxicity) | Echinochloa crus-galli post (herbicidal effect) (Echinochloa crus-galli): 4 (90%-99% herbicidal effect, phytotoxicity) | Lindernia procumbens post (herbicidal effect) (Lindernia procumbens [3]): 4 (90%-99% herbicidal effect, phytotoxicity) | Scirpus juncoides post (herbicidal effect) (Scirpus juncoides [4]): 4 (90%-99% herbicidal effect, phytotoxicity)

CCOC(=O)N(c1ccccc1CN1CCC(C)(C)OC1=O)S(=O)(=O)C(F)(F)F [Compound 1-47]
Lindernia procumbens pre (herbicidal effect) (Lindernia procumbens [1]): 4 (90%-99% herbicidal effect, phytotoxicity) | Scirpus juncoides pre (herbicidal effect) (Scirpus juncoides [2]): 4 (90%-99% herbicidal effect, phytotoxicity) | Echinochloa crus-galli post (herbicidal effect) (Echinochloa crus-galli): 4 (90%-99% herbicidal effect, phytotoxicity) | Lindernia procumbens post (herbicidal effect) (Lindernia procumbens [3]): 4 (90%-99% herbicidal effect, phytotoxicity) | Scirpus juncoides post (herbicidal effect) (Scirpus juncoides [4]): 4 (90%-99% herbicidal effect, phytotoxicity)

CC(C)COC(=O)N(c1ccccc1CN1CCC(C)(C)OC1=O)S(=O)(=O)C(F)(F)F [Compound 1-50]
Lindernia procumbens pre (herbicidal effect) (Lindernia procumbens [1]): 4 (90%-99% herbicidal effect, phytotoxicity) | Scirpus juncoides pre (herbicidal effect) (Scirpus juncoides [2]): 4 (90%-99% herbicidal effect, phytotoxicity) | Echinochloa crus-galli post (herbicidal effect) (Echinochloa crus-galli): 4 (90%-99% herbicidal effect, phytotoxicity) | Lindernia procumbens post (herbicidal effect) (Lindernia procumbens [3]): 4 (90%-99% herbicidal effect, phytotoxicity) | Scirpus juncoides post (herbicidal effect) (Scirpus juncoides [4]): 4 (90%-99% herbicidal effect, phytotoxicity)

CC(C)(C)COC(=O)N(c1ccccc1CN1CCC(C)(C)OC1=O)S(=O)(=O)C(F)(F)F [Compound 1-51]
Lindernia procumbens pre (herbicidal effect) (Lindernia procumbens [1]): 4 (90%-99% herbicidal effect, phytotoxicity) | Scirpus juncoides pre (herbicidal effect) (Scirpus juncoides [2]): 4 (90%-99% herbicidal effect, phytotoxicity) | Echinochloa crus-galli post (herbicidal effect) (Echinochloa crus-galli): 4 (90%-99% herbicidal effect, phytotoxicity) | Lindernia procumbens post (herbicidal effect) (Lindernia procumbens [3]): 4 (90%-99% herbicidal effect, phytotoxicity) | Scirpus juncoides post (herbicidal effect) (Scirpus juncoides [4]): 4 (90%-99% herbicidal effect, phytotoxicity)

CCCCCOC(=O)N(c1ccccc1CN1CCC(C)(C)OC1=O)S(=O)(=O)C(F)(F)F [Compound 1-52]
Lindernia procumbens pre (herbicidal effect) (Lindernia procumbens [1]): 4 (90%-99% herbicidal effect, phytotoxicity) | Scirpus juncoides pre (herbicidal effect) (Scirpus juncoides [2]): 4 (90%-99% herbicidal effect, phytotoxicity) | Echinochloa crus-galli post (herbicidal effect) (Echinochloa crus-galli): 4 (90%-99% herbicidal effect, phytotoxicity) | Lindernia procumbens post (herbicidal effect) (Lindernia procumbens [3]): 4 (90%-99% herbicidal effect, phytotoxicity) | Scirpus juncoides post (herbicidal effect) (Scirpus juncoides [4]): 4 (90%-99% herbicidal effect, phytotoxicity)

COCN(c1ccccc1CN1CCC(C)(C)OC1=O)S(=O)(=O)C(F)(F)F [Compound 1-55]
Lindernia procumbens pre (herbicidal effect) (Lindernia procumbens [1]): 4 (90%-99% herbicidal effect, phytotoxicity) | Scirpus juncoides pre (herbicidal effect) (Scirpus juncoides [2]): 4 (90%-99% herbicidal effect, phytotoxicity) | Echinochloa crus-galli post (herbicidal effect) (Echinochloa crus-galli): 4 (90%-99% herbicidal effect, phytotoxicity) | Lindernia procumbens post (herbicidal effect) (Lindernia procumbens [3]): 4 (90%-99% herbicidal effect, phytotoxicity) | Scirpus juncoides post (herbicidal effect) (Scirpus juncoides [4]): 4 (90%-99% herbicidal effect, phytotoxicity)
